Reference: patent US20090170926A1, “Antiviral agents” (Monash Univeristy, priority 2004, published 2009)
Where two headings read alike, the source gives them in different places.

How the values were obtained:
[1] = test system: HBV containing mutations associated with resistance to lamivudine (L180M and L180M/M204V in the HBV DNA polymerase) in HepG2 hepatoma cells; experiment: HBV core protein level in HepG2 hepatoma cells infected with lamivudine-resistant HBV (non-denaturing Western blot); type: cell-based, hepatitis B virus; settings: day 5, HBV core protein vs controls
Procedure: Antiviral activity was also examined in HepG2 hepatoma cells infected with HBV containing mutations associated with resistance to lamivudine (3TC). Two cell lines containing an L180M mutation in the HBV DNA polymerase, and a double L180M/M204V mutation were used. Cells were plated out in six well plates and allowed to attach overnight. Next day, the culture medium was replaced with either medium alone or medium containing the desired concentration of antiviral compound. Media was changed for fresh medium with or without antiviral compound on day 3. On day 5, supernatant and cell lysatcs were analysed for levels of HBV core protein by non-denaturing Western blot using an anti-HBV core antibody.
Results for some of the compounds are shown in Table 2 where a 50% reduction or more in measured level of the viral core protein compared to controls at a compound concentration of greater than 50 μmolar is designated +50% core reduction at less than 50 μmolar is designated ++ and 50% core reduction at less than 10 μmolar compound concentration is designated +++.

[2] = test system: hepatitis B in 2.2.15 human hepatoma cells; experiment: Antiviral activity in 2.2.15 human hepatoma cells infected with hepatitis B (viral DNA in supernatant); type: cell-based; settings: Hepatitis B virus; for EC50: read-out: EC50 (effective concentration for 50% inhibition of the replication of the virus); for EC90: read-out: EC90 (effective concentration for 90% inhibition of the replication of the virus)
Procedure: Tests of antiviral activity were performed in 2.2.15 human hepatoma cells infected with hepatitis B according to the method of Korba and Gerin, Antiviral Research, 19, 55-70 (1992). Briefly, cells were seeded into 96 well plates and cell media containing various concentrations of the compounds was added. Media was changed daily for 9 days and fresh media containing compound was added each day. On the 10th day, viral DNA in the supernatant was measured and the reduction in the amount of virus in the supernatant was calculated compared to cells incubated without drug. Six separate replicates were performed for each drug concentration. The effective concentration for 50% and 90% inhibition of the replication of the virus was determined from dose response curves.

Solubility in water = type: physicochemical; settings: read-out: solubility in water (fully soluble)
Procedure: The ^1H NMR can also be run in D2O, compound 13 is fully soluble in water at 10 mg/mL

[3] = 2.2.15 cells, 9 days treatment, viral DNA in supernatant on day 10

| melting point | SMILES | ≧50% core reduction [1] | further results |
| --- | --- | --- | --- |
| 109 to 115 °C | Cc1ccc(S(=O)(=O)OC2=C(Br)C(=O)c3c(ccc4c3CCC(C)(C)O4)C2=O)cc1 |  |  |
| 181.5 to 184 °C | Cc1ccc(S(=O)(=O)OC2=C(Br)C(=O)c3ccc4c(c3C2=O)C=CC(C)(C)O4)cc1 |  |  |
| 158 to 160 °C | CC1(C)CCc2c(ccc3c2C(=O)C(Cl)=C(Cl)C3=O)O1 |  |  |
| 168 to 169.5 °C | Cc1ccc(S(=O)(=O)OC2=C(Br)C(=O)c3ccc4c(c3C2=O)CCC(C)(C)O4)cc1 |  |  |
| 167 to 168 °C | Cc1ccc(S(=O)(=O)OC2=C(Br)C(=O)c3c(ccc4c3C=CC(C)(C)O4)C2=O)cc1 |  |  |

Further lines, the compound ahead of its results:

| SMILES | melting point | ≧50% core reduction [1] | further results |
| --- | --- | --- | --- |
| CC1(C)C=Cc2c(ccc3c2C(=O)C(Br)=C(O)C3=O)O1 [Compound 6, 9-Bromo-8-hydroxy-3,3-dimethyl-3H-naphtho[2,1-b]pyran-7,10-dione] |  | + (a 50% reduction or more in measured level of the viral core protein compared to controls at a compound concentration of greater than 50 μmolar is designated +) |  |
| CC1(C)CCc2c(ccc3c2C(=O)C=C(O)C3=O)O1 [Compound 2, 8-Hydroxy-3,3-dimethyl-1,2-dihydro-3H-naphtho[2,1-b]pyran-7,10-dione] | 183.5 to 187 °C |  | EC50 [2, 3]: 1100 nM; EC90 [2, 3]: 1300 nM |
| CC1(C)C=Cc2c(ccc3c2C(=O)C=C(O)C3=O)O1 [Compound 13, Sodium 3,3-dimethyl-7,10-dioxo-7,10-dihydro-3H-benzo[f]chromen-8-olate] |  | + (a 50% reduction or more in measured level of the viral core protein compared to controls at a compound concentration of greater than 50 μmolar is designated +) | solubility (Solubility in water): ≥ 10000 µg/mL |
| CC1(C)C=Cc2c(ccc3c2C(=O)C=C(O)C3=O)O1 [Compound 1, 8-hydroxy-3,3-dimethyl-3H-naphtho[2,1-b]pyran-7,10-dione] | 208 °C | +++ (50% core reduction at less than 10 μmolar compound concentration is designated +++) | EC50 [2]: 600 nM; EC90 [2]: 3400 nM |
| CC1(C)CCc2c(ccc3c2C(=O)C(Br)=C(O)C3=O)O1 [Compound 5, 9-bromo-8-hydroxy-3,3-dimethyl-1,2-dihydro-3H-naphtho[2,1-b]pyran-7,10-dione] | 213 to 216 °C | ++ (50% core reduction at less than 50 μmolar is designated ++) |  |
